Values joined by “and” are separate entries in the source; they are usually repeats but may differ in a detail not shown here. Equal values may be shown once. Inconclusive results and toxic doses are left out.
Test system: P388 leukemia ip, CD2F1 mice, survival T/C
Test: NCI In Vivo Anticancer Drug Screen. Data for tumor model P388 Leukemia (intraperitoneal) in CD2F1 (CDF1) mice
Details: endpoint: median survival time, higher = longer survival
Procedure, shortened: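 Mice carrying the transplanted tumor received test compound or vehicle. Survival was recorded in each group, and the value is the treated-group measurement divided by that of the vehicle-treated control group.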

[1] = dose: 60.0 mg/kg/injection, schedule: Q01DX005 (ip), vehicle: Klucel (hydroxypropylcellulose) (HPC)
[2] = dose: 50.0 mg/kg/injection, schedule: Q01DX005 (ip), vehicle: saline with Tween-80
[3] = dose: 100.0 mg/kg/injection, schedule: Q01DX005 (ip), vehicle: saline with Tween-80
[4] = dose: 200.0 mg/kg/injection, schedule: Q01DX005 (ip), vehicle: saline with Tween-80

How did the T/C (dose: 15.0 mg/kg/injection, schedule: Q01DX005 (ip), vehicle: Klucel + Tween-80) turn out when `O=CC1=CSC(=C2SC=CS2)S1` was run?
The T/C was 95 % of control.

And the T/C (dose: 30.0 mg/kg/injection, schedule: Q01DX005 (ip), vehicle: Klucel + Tween-80)?
Its T/C is 87 % of control.

What about the T/C [1] of the same compound?
The T/C was 101 % of control.

And the T/C (dose: 60.0 mg/kg/injection, schedule: Q01DX005 (ip), vehicle: Klucel + Tween-80)?
Its T/C is 106 % of control.

Which results are given for `O=C1Cc2cccc3cccc1c23`?
T/C (dose: 25.0 mg/kg/injection, schedule: Q01DX009 (ip), vehicle: saline with Tween-80): 90 % of control; T/C (dose: 50.0 mg/kg/injection, schedule: Q01DX009 (ip), vehicle: saline with Tween-80): 104 % of control; T/C (dose: 100.0 mg/kg/injection, schedule: Q01DX009 (ip), vehicle: saline with Tween-80): 96 % of control; T/C (dose: 200.0 mg/kg/injection, schedule: Q01DX009 (ip), vehicle: saline with Tween-80): 111 % of control

Which T/C (dose: 3.12 mg/kg/injection, schedule: Q04DX003 (ip), vehicle: distilled water + Tween-80) does the source give for `COc1cccc2c1C(=O)c1c(O)c3c(c(O)c1C2=O)C[C@@](O)(C(C)=O)C[C@@H]3OC1CC(N)C(C(C)O)O1` (stereo partly specified) here?
The T/C was 117 % of control and 101 % of control.

What about the T/C (dose: 6.25 mg/kg/injection, schedule: Q04DX003 (ip), vehicle: distilled water + Tween-80) of the same compound?
Its T/C is 112 % of control and 92 % of control.

And the T/C (dose: 12.5 mg/kg/injection, schedule: Q04DX003 (ip), vehicle: distilled water + Tween-80)?
Its T/C is 114 % of control and 104 % of control.

What about the T/C (dose: 25.0 mg/kg/injection, schedule: Q04DX003 (ip), vehicle: distilled water + Tween-80) of the same compound?
Its T/C is 117 % of control and 111 % of control.

What about the T/C (dose: 50.0 mg/kg/injection, schedule: Q04DX003 (ip), vehicle: distilled water + Tween-80) of the same compound?
The T/C was 117 % of control.

What about the T/C (dose: 100.0 mg/kg/injection, schedule: Q04DX003 (ip), vehicle: distilled water + Tween-80) of the same compound?
The T/C was 119 % of control.

For `Cc1cc(N/N=C(\c2ccccc2)c2ccccn2)nc2ccccc12`, which T/C [2] is on record?
Its T/C is 104 % of control.

What about the T/C [3] of the same compound?
The T/C was 103 % of control.

What about the T/C [4] of the same compound?
The T/C was 94 % of control.

How did the T/C [2] turn out when `CCN(CC)c1ccc2cc(S(=O)(=O)c3ccc(C)cc3)c(=O)oc2c1` was run?
The T/C was 96 % of control.

For `C=CC1(C)CC(C)=NC1C(=O)c1c[nH]c2ccccc12` (stereo unspecified), which T/C (dose: 12.5 mg/kg/injection, schedule: Q01DX005 (ip), vehicle: DMSO) is on record?
The T/C was 100 % of control.

And the T/C (dose: 25.0 mg/kg/injection, schedule: Q01DX005 (ip), vehicle: DMSO)?
The T/C was 97 % of control.

What about the T/C (dose: 50.0 mg/kg/injection, schedule: Q01DX005 (ip), vehicle: DMSO) of the same compound?
Its T/C is 90 % of control.

What about the T/C (dose: 100.0 mg/kg/injection, schedule: Q01DX005 (ip), vehicle: DMSO) of the same compound?
The T/C was 94 % of control.

And the T/C (dose: 200.0 mg/kg/injection, schedule: Q01DX005 (ip), vehicle: DMSO)?
Its T/C is 90 % of control.

Which results are given for `CC(C)(C)c1cc(C(C)(C)C)c(O)c(Br)c1O`?
T/C (dose: 50.0 mg/kg/injection, schedule: Q01DX009 (ip), vehicle: Klucel (hydroxypropylcellulose) (HPC)): 101 % of control; T/C (dose: 100.0 mg/kg/injection, schedule: Q01DX009 (ip), vehicle: Klucel (hydroxypropylcellulose) (HPC)): 102 % of control; T/C (dose: 200.0 mg/kg/injection, schedule: Q01DX009 (ip), vehicle: Klucel (hydroxypropylcellulose) (HPC)): 101 % of control

With `CSCSCC(N)CO` (stereo unspecified) as the compound, how does the T/C (dose: 25.0 mg/kg/injection, schedule: Q01DX005 (ip), vehicle: water) read?
Its T/C is 95 % of control.

And the T/C (dose: 50.0 mg/kg/injection, schedule: Q01DX005 (ip), vehicle: water)?
Its T/C is 100 % of control.

What about the T/C (dose: 100.0 mg/kg/injection, schedule: Q01DX005 (ip), vehicle: water) of the same compound?
The T/C was 89 % of control.

What about the T/C (dose: 200.0 mg/kg/injection, schedule: Q01DX005 (ip), vehicle: water) of the same compound?
Its T/C is 95 % of control.

And the T/C (dose: 400.0 mg/kg/injection, schedule: Q01DX005 (ip), vehicle: water)?
The T/C was 89 % of control.

With `COc1nc(N(CCO)c2ccccc2)nc(N(CCO)c2ccccc2)n1` as the compound, how does the T/C [2] read?
The T/C was 96 % of control.

What about the T/C [3] of the same compound?
The T/C was 93 % of control.

And the T/C [4]?
Its T/C is 92 % of control.

`CC(=O)c1c(C)cc2cccc(O)c2c1O` was tested. Which T/C (dose: 15.0 mg/kg/injection, schedule: Q01DX005 (ip), vehicle: Klucel (hydroxypropylcellulose) (HPC)) did it give?
The T/C was 105 % of control.

What about the T/C (dose: 30.0 mg/kg/injection, schedule: Q01DX005 (ip), vehicle: Klucel (hydroxypropylcellulose) (HPC)) of the same compound?
The T/C was 112 % of control.

And the T/C [1]?
Its T/C is 103 % of control.

And the T/C (dose: 120.0 mg/kg/injection, schedule: Q01DX005 (ip), vehicle: Klucel (hydroxypropylcellulose) (HPC))?
The T/C was 108 % of control.

Which T/C (dose: 3.12 mg/kg/injection, schedule: Q01DX005 (ip), vehicle: Klucel (hydroxypropylcellulose) (HPC)) does the source give for `CN=C(NCCc1ccccc1)c1ccc(NC(=O)c2ccc(C(=O)Nc3ccc(C(=NC)NCCc4ccccc4)cc3)cc2)cc1` here?
Its T/C is 114 % of control.

What about the T/C (dose: 6.25 mg/kg/injection, schedule: Q01DX005 (ip), vehicle: Klucel (hydroxypropylcellulose) (HPC)) of the same compound?
Its T/C is 116 % of control and 122 % of control.

And the T/C (dose: 12.5 mg/kg/injection, schedule: Q01DX005 (ip), vehicle: Klucel (hydroxypropylcellulose) (HPC))?
The T/C was 154 % of control.

— PubChem BioAssay AID330 (DTP/NCI, 2004)
